From PMC8922758, “A new therapeutic approach for bone metastasis in colorectal cancer: intratumoral melittin” (The Journal of Venomous Animals and Toxins Including …, 2022)

Key:
[1] = tested on: HT-29 human colorectal cancer cells; test: MTT cytotoxicity assay; assay type: cell-based; conditions: 48 h incubation
Method: Human CRC (HT-29) was purchased from the European Collection of Authenticated Cell Cultures. It was thawed and propagated in […] flasks at 37 °C in a 5% CO2 humidified chamber (HeraCELL 150) in Dulbecco's modified Eagle's medium (DMEM; Sigma D-5648, São Paulo, Brazil) supplemented with 100 mM sodium pyruvate (Gibco, Thermo Fisher Scientific, Waltham, Massachusetts, USA), 10% fetal bovine serum (FBS) (Gibco, Fisher Scientific, Waltham, Massachusetts, USA), and 1% antibiotics (100 U/mL penicillin and 10 mg/mL streptomycin, Gibco). Cells were detached using 0.25% trypsin-EDTA (Gibco, Fisher Scientific, Waltham, Massachusetts, USA) at 37 °C for 3 min. DMEM plus 10% FBS was used to block the trypsin. The cell pellet was transferred to a new 75 cm^3 flask containing 10 mL DMEM. The culture medium was changed every 24 h. Cell viability was evaluated in the Neubauer chamber using Trypan Blue.
To check the viability, the culture fluid is removed and 5 × 10^5cells per well were treated with melittin (0.0625, 0.125, 0.25, 0.5, 1.0, 2.0, 35 and 70 µM). After 48 h of incubation, MTT (3-(4,5-dimethylthiazol-2-yl)-2,5-diphenyltetrazolium bromide) 0.5 mg/mL was added to each well and incubated at 37 °C for 4 h to determine the number of living cells. […] Then, the optical density was detected by a microplate reader at a wavelength of 540 nm (EPOCH, BioTech Instrument Inc., Winooski, VT, USA). […]

[2] = cited from earlier work
From the text: The peptide inhibited approximately 50% of the growth of metastasis. […] In a recent paper melittin could be detected in patients up to 30 days after envenomation, clearly indicating bioaccumulation corroborating the effects of the single-dose treatment. Besides, melittin has the ability to improves sy ...

[3] = tested on: HT-29 CRC bone metastasis xenograft; test: Bone metastasis in colorectal cancer mouse model, metastasis volume after intrametastatic injection; assay type: in vivo, Balb/c-nu mice
Method: Six-week-old Balb/c-nu male mice (n = 9), weighing 23,76 ± 3,11 g, from Charles River Laboratories International Inc. (Wilmington, USA) were housed in individual ventilated racks. All animals were kept under controlled light conditions (12 h light/12 dark cycles), temperature (23 ± 1 °C), humidity (40%-60%), water, and feed ad libitum.
The procedures were performed in a laminar flow with rigorous asepsis and antisepsis techniques. On day 0, to perform the cell inoculation, mice were anesthetized with xylazine hydrochloride 2% plus ketamine, diluted 1:2 (0.3 mL/20 g), and administered via intramuscular injection. Briefly, cells were suspended in 40 μL of saline. A percutaneous 45° puncture was performed. Bone scarification was performed with the bevel of the hypodermic needle carefully to avoid transfixing the skullcap. Then, without needle exchange, cells (4 × 10^6 cells) were injected over the periosteal in the parietal region using a 1 mL syringe and 36G caliber hypodermic needle.
After xenograft, the animals were monitored daily. Metastasis was verified and measured every day. In case of signs, the animal is euthanized immediately. Metal calipers checked the volume. The growth curves were determined using the formula: Volume = L × S^2/2, where "S" is the smallest diameter measured and "L" is the largest diameter measured.
After the tumor reached 100 mm^3 (by the 19th day after xenograft), the animals were randomized into groups:
After anesthesia, 1,5 mg/kg single dose of melittin was injected in the metastasis with a sterile syringe, as deep as possible, without trespassing the tumor. Without removing the needle, 50 µL of solution was applied slowly for a homogenous distribution into the metastasis, equally distributed (10 µL) in the center and cardinal points. After the administration, the needle remained in the metastasis for 20 seconds before being slowly removed to avoid extravasation.

[4] = tested on: HT-29 CRC bone metastasis xenograft; test: Histopathological analysis of the metastasis; assay type: in vivo, Balb/c-nu mice; conditions: H&E
From the text: After the anesthetic procedure by the parenteral anesthetic drug overdose, the animals were euthanized. The tumor was then resected entirely for anatomopathological analysis. The external surface of the sample was inspected. The opened and cleaned specimens were immersed in formalin overnight for fixation and embedded in paraffin. Metastasis was sliced to assess bone invasion. Tumor 3 µm sections were stained with hematoxylin-eosin and subjected to optical microscopy. Metastasis diagnosis and histological features were determined.

[5] = Animal follow up: signs of toxicity, body weight, organ histopathology; assay type: in vivo, Balb/c-nu mice
Method: Signals of suffering and toxicity were carefully observed daily. The following general behaviors were observed: low activity, appetite loss, personality changes, immobility, social isolation, urine and feces consistency changes, lack of personal hygiene, and self-mutilation. Specific to mice, weight loss, dehydration, piloerection, and screams when touched were evaluated.
Moreover, immediately after euthanized, liver, kidneys, and heart were removed from the animals for histopathological analysis, which was conducted with the same method described above.

[6] = Mass spectrometry characterisation (aggregation state); assay type: physicochemical; conditions: LC-MS, Q-Exactive Plus, C18, before application in the animals
From the text: The purity and identity were confirmed by mass spectrometry using a Q-Exactive Plus (Thermo Fisher Scientific, Waltham, Massachusetts, USA). The peptide was inserted into a C18 column (EASY-Spray™ LC Columns, Thermo Fisher Scientific, Waltham, Massachusetts, USA) coupled to a liquid chromatography binary system (EASY-nLC 1,200, Thermo Scientific, Waltham, Massachusetts, USA) and eluted with a gradient of 5%-80% of solvent A (water containing 0.1% formic acid) and B (90% acetonitrile containing 0.1% formic acid) with a constant flow of 100 nL/min. The eluted was automatically inserted in the mass spectrometer, operating in positive mode, in MS mode of a full scan of 300-1500 m/z.

CC[C@H](C)[C@H](NC(=O)CN)C(=O)NCC(=O)N[C@@H](C)C(=O)N[C@H](C(=O)N[C@@H](CC(C)C)C(=O)N[C@@H](CCCCN)C(=O)N[C@H](C(=O)N[C@@H](CC(C)C)C(=O)N[C@H](C(=O)N[C@H](C(=O)NCC(=O)N[C@@H](CC(C)C)C(=O)N1CCC[C@H]1C(=O)N[C@@H](C)C(=O)N[C@@H](CC(C)C)C(=O)N[C@H](C(=O)N[C@@H](CO)C(=O)N[C@@H](Cc1c[nH]c2ccccc12)C(=O)N[C@H](C(=O)N[C@@H](CCCCN)C(=O)N[C@@H](CCCNC(=N)N)C(=O)N[C@@H](CCCCN)C(=O)N[C@@H](CCCNC(=N)N)C(=O)N[C@@H](CCC(N)=O)C(=O)N[C@@H](CCC(N)=O)C(N)=O)[C@@H](C)CC)[C@@H](C)CC)[C@@H](C)O)[C@@H](C)O)C(C)C)C(C)C [melittin]
maximum inhibition of HT-29 proliferation ([1]; 2 µM, mean of triplicates): 80%
decrease of the initial HT-29 cell number ([1]; 0.0625-70 µM, triplicates): about 20%
time melittin is detectable in patients after envenomation [2]: up to 30 days
inhibition of growing metastasis ([3]; 1,5 mg/kg single intrametastatic dose on day 19, 2 days after the treatment, n = 6 vs untreated n = 3, p < 0.001): approximately 50%
metastasis reduction ([3]; after a single intrametastatic dose, 1,5 mg/kg): 53%
metastasis regrowth ([3]; seven days after single-dose injection): metastases started growing again
microscopy of treated metastasis, mitosis rate ([4]; melittin-treated animals n = 6): low mitosis rate
microscopy of treated metastasis, tumor cells ([4]; last experimental day (day 27), n = 6): necrosis and absence of tumor cells
death or severe toxicity signs ([5]; after intrametastatic treatment, 1,5 mg/kg single dose): no death or severe toxicity signs
signs of envenomation ([5]; daily observation after 1,5 mg/kg single intrametastatic dose): did not show signs of envenomation
local reaction at injection site ([5]; day 20, the day after intrametastatic injection of 1,5 mg/kg): local inflammation
histopathological analysis of liver, kidney and heart ([5]; day 27, seven days after single dose, H&E): no signals of toxicity
body weight versus untreated animals ([5]; three days after administration, p < 0.01, n = 6 vs n = 3): greater weight loss than those untreated
aggregation state by mass spectrometry [6]: monomeric structure without aggregation
